Assay results taken from publication PMC4501687, “Design of a Selective Substrate and Activity Based Probe for Human Neutrophil Serine Protease 4” (PLoS ONE, 2015).

Tests used:
CatG [1] = molecular target: T1, CatG (Homo sapiens, UniProt P08311); experiment: Fluorogenic substrate hydrolysis kinetics with CatG; assay type: biochemical; settings: Table 3; assay substrate for CatG; Km above 100 μM, the concentration used in the assay; read-out: Km of the substrate used for analysis
T1 construct: purchased Biocentrum, Krakow, Poland
T1 sequence (P08311 21-255): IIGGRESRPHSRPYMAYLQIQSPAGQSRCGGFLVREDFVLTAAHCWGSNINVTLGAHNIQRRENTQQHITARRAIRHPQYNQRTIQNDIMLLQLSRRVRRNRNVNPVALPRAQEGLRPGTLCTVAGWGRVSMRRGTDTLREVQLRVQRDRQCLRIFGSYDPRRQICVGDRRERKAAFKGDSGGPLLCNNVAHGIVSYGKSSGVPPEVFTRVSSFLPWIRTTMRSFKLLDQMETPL
Method: Kinetic parameters of selected substrates were determined in 50 mM Hepes, 0.1 M NaCl, 0.1%TRITON-X100, pH 7.45 assay buffer on 96 wells Corning plates. Measurements were performed for a minimum of 20 minutes. The excitation wavelength was 355 nm, and the emission wavelength was 460 nm, with a cutoff of 455 nm. Human NE and CatG were purchased from Biocentrum, Krakow, Poland and PR3 from Athens Research Technology, Athens, Georgia, USA. Recombinant human NSP4 was expressed and purified as previously described.
In addition to NSP4, neutrophils contain three other structurally-related serine proteases NE, PR3 and CatG [1] that are also stored in azurophilic granules. To estimate the degree of eventual cross reactivity of the optimal substrate with these three serine proteases, we measured kinetic parameters for each enzyme on PK421. […] In the case of CatG we were unable to saturate the enzyme and therefore could not calculate the individual values of kcat and Km.

NSP4 [2] = molecular target: T2, NSP4 (Homo sapiens, UniProt Q6UWY2); experiment: Inhibition rate constant (kobs/I), pseudo-first order, NSP4; assay type: biochemical
T2 construct: made in house
T2 sequence (Q6UWY2 32-283): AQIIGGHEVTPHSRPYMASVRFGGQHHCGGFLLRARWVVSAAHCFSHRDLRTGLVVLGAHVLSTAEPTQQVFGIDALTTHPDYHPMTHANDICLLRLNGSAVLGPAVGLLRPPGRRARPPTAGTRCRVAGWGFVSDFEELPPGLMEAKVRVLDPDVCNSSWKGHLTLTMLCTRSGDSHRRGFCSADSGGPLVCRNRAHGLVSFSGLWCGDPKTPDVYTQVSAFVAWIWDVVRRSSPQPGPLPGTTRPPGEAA
Method: (§1) The active concentration of each NSP was determined by PK401 titration in 50 mM Hepes, 0.1 M NaCl, 0.1%TRITON-X100, pH 7.45 assay buffer on 96 wells Corning plates. Rfu/s values were measured for minimum 20 minutes. The excitation wavelength was 355 nm, and the emission wavelength was 460 nm, with a cutoff of 455 nm. Under pseudo-first order conditions, a fixed amount of NSP4 (2.8 nM active enzyme), PR3, NE, or CatG (100 nM active enzyme) was mixed with PK401 at different concentration ranges starting from at least 2-fold excess over NSP4 (6.6–20nM) and 7-fold excess over NE, CatG and PR3 (0.7–50μM). […] Product formation (P) proceeded at an initial velocity (V) and was inhibited over time (t) at a rate of (k a): P = V/ka*(1-e^-ka^*t)+C, where k o is defined as k obs(app) −the apparent rate of inhibition in the presence of substrate. k obs was determined separately for each probe concentration using non-linear regression analysis in GraphPadPrism software. The obtained values were plotted against probe concentration giving k obs(app)/I (apparent second order rate constant). kobs/I (absolute value of the second order rate constant) was then calculated from kobs/I = ka/I *(1+[S]/Km). […]

CatG [3] = molecular target: T1, CatG; experiment: Inhibition rate constant (kobs/I), pseudo-first order, CatG; assay type: biochemical; settings: selectivity NSP4 over CatG
Method: as §1

NSP4 [4] = molecular target: T2, NSP4; experiment: SDS-PAGE / streptavidin blot labeling of purified NSP4 by probe; assay type: binding; settings: 100 nM NSP4, 20 min 37°C; SDS-PAGE, nitrocellulose transfer, fluorescent streptavidin; probe tested 1–2000 nM
Method: 100nM of NSP4 was incubated with competing inhibitor—Ac-IVPR-CMK for 30 minutes at 37°C and then treated with different concentrations of probe—PK401 (2000nM and 1000nM) for 20 minutes at 37°C. Separately, 100nM of NSP4 was incubated with five different concentrations of probe- 2000nM, 1000nM, 100nM, 10nM, and 1 nM for 20 minutes in 37°C. As a control 100nM PK401 was incubated with assay buffer.
(§2) Samples were denatured and run in 4–12% SDS PAGE following transfer to nitrocellulose membrane. The membrane was blocked with 1.5% BSA in TBST overnight at 4°C and treated with IRDye800CW Streptavidin (dilution 1:10000 with 1.5% BSA in TBST) for 45 minutes. Then enzyme was visualized using a Li-cor fluorescence imager and Odyssey Molecular Modeling Software.
(§3) SDS-page and Western Blot […]
A standard SDS broad spectrum marker (Biorad) was used (Fig. 4A, lane 1). […]
(§4) minutes in 37° C (Fig. 4, lanes 4, 5, 6, 7, 8). […] Then enzyme was visualized using a Li-cor fluorescence imager and Odyssey Molecular Modeling Software. […]
(§5) The membrane was blocked with 1.5% BSA in TBST overnight at 4° C and treated with IRDye800CW Streptavidin (dilution 1:10000 with 1,5% BSA in TBST) for 45 minutes. Then PK401 was visualized using a Li-cor fluorescence imager and Odyssey Molecular Modeling Software.

NE = molecular target: T3, NE (Homo sapiens, UniProt P08246); experiment: SDS-PAGE / streptavidin blot labeling of NE by probe; assay type: binding; settings: 100 nM active enzyme, 100 nM PK401; streptavidin blot (Fig 4B)
T3 construct: purchased Biocentrum, Krakow, Poland
T3 sequence (P08246 30-267): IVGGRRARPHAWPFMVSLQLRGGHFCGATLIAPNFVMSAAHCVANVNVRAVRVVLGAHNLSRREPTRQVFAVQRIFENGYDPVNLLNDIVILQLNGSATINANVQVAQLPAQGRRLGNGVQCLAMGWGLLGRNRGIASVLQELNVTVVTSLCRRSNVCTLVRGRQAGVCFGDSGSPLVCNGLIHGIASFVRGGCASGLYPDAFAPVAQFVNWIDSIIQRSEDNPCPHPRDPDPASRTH
Method: as §2
(§6) The same methodology was used to visualize potential cross-reactivity of NSP’s with PK401. 100nM of each NSP was incubated with buffer or 100nM PK401, followed by SDS-page and transfer to nitrocellulose membrane. For more details see S1 Text.
as §3
(§7) A standard SDS broad spectrum marker (Biorad) was used (Fig. 4A, lane 1).
(§8) Two Eppendorf tubes with 100nM of NSP4 were incubated with Ac-IVPR-CMK for 30 minutes at 37°C and then treated with PK401 at 2000nM and 1000nM for an additional 20 minutes at 37° C (Fig. 4, lanes 2 and 3). Separately, 100nM enzyme […]
as §4, §5

CatG [5] = molecular target: T1, CatG; experiment: SDS-PAGE / streptavidin blot labeling of CatG by probe; assay type: binding; settings: 100 nM active enzyme, 100 nM PK401; streptavidin blot (Fig 4B)
Method: as §2, §6, §3, §7, §8, §4, §5

Substance | Km (CatG [1]) [µM] | kobs/I (second order rate constant of inhibition) (NSP4 [2]; NSP4 2.8 nM active enzyme, probe 6.6–20 nM, substrate Ac-hCha-Phe(guan)-Pro-Arg-ACC above Km, 37°C, Hepes buffer pH 7.45, corrected by 1+[S]/Km) [M⁻¹ s⁻¹] | Fold higher kobs/I than PK401b (NSP4 [2]; NSP4, diastereoisomers compared) [times] | Inhibition of CatG relative to NSP4 (kobs/I) (CatG [3]) | Probe concentration giving robust labeling of NSP4 (NSP4 [4]) [nM] | Labeling of NE by probe (NE) | Labeling of CatG by probe (CatG [5])
Suc-Ala-Ala-Pro-Phe-AMC [assay substrate for CatG] | > 100 |  |  |  |  |  | 
Biot-Ahx-hCha-Phe(guan)-Oic-Arg^P(OPh)2 [PK401] |  | 3.8e+06 | 40 | three orders of magnitude slower | 10 | only trace amounts of labeling | only trace amounts of labeling
